Measurements as given in the supplement of paper PMC10307832.

What was measured:
Experiment in all cases: relative viability (nuclei count vs DMSO), 5 days (fraction); higher = more cells survive
[1] = compound: CC1=C(C(=O)N2C=CSC2=N1)CCN3CCC(=C(C4=CC=CC=C4)C5=CC=C(C=C5)F)CC3 + Cc1cc(Nc2cc(N3CCN(C)CC3)nc(Sc3ccc(NC(=O)C4CC4)cc3)n2)n[nH]1 [Tozasertib] (partner 0.1 µM)
In short: (§1)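 A single step with final 0.05% Triton X-100, 1% formaldehyde and 1 ug/ml Hoechst fixed the cells and stained nuclei 5 days after treatment. Lung cancer cell lines in 1536-well plates had been treated by pin tool the day after seeding with one drug alone or a fixed anchor-drug dose plus five library-drug doses (not always all listed) in √10 steps, and nuclei were counted on 4× images. Relative viability is the ratio of nuclei in treated wells to nuclei in vehicle wells, taken as the median of duplicate plates.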

[2] = compound: CC1=C(C(=O)N2C=CSC2=N1)CCN3CCC(=C(C4=CC=CC=C4)C5=CC=C(C=C5)F)CC3 + COc1cc2c(Oc3ccc(NC(=O)C4(C(=O)Nc5ccc(F)cc5)CC4)cc3F)ccnc2cc1OCCCN1CCOCC1 [Foretinib] (partner 0.25 µM)
In short: as §1

[3] = compound: CC1=C(C(=O)N2C=CSC2=N1)CCN3CCC(=C(C4=CC=CC=C4)C5=CC=C(C=C5)F)CC3 + CCNC(=O)c1noc(-c2cc(C(C)C)c(O)cc2O)c1-c1ccc(CN2CCOCC2)cc1 [Luminespib] (partner 0.01 µM)
In short: as §1

[4] = compound: CC1=C(C(=O)N2C=CSC2=N1)CCN3CCC(=C(C4=CC=CC=C4)C5=CC=C(C=C5)F)CC3 + NC(=O)Nc1cc(-c2cccc(F)c2)sc1C(=O)N[C@H]1CCCNC1 [AZD7762] (partner 0.2 µM)
In short: as §1

Row | Cell Line | relative viability ([1]; first compound 0.08 µM) | relative viability ([1]; first compound 0.253 µM) | relative viability ([1]; first compound 0.8 µM) | relative viability ([1]; first compound 2.53 µM) | relative viability ([1]; first compound 8 µM) | relative viability ([2]; first compound 0.08 µM) | relative viability ([2]; first compound 0.253 µM) | relative viability ([2]; first compound 0.8 µM) | relative viability ([2]; first compound 2.53 µM) | relative viability ([2]; first compound 8 µM) | relative viability ([3]; first compound 0.08 µM) | relative viability ([3]; first compound 0.253 µM) | relative viability ([3]; first compound 0.8 µM) | relative viability ([3]; first compound 2.53 µM) | relative viability ([3]; first compound 8 µM) | relative viability ([4]; first compound 0.08 µM) | relative viability ([4]; first compound 0.253 µM) | relative viability ([4]; first compound 0.8 µM) | relative viability ([4]; first compound 2.53 µM) | relative viability ([4]; first compound 8 µM)
1 | NCI-H2342 | 0.559 | 0.492 | 0.585 | 0.504 | 0.431 | 0.884 | 1.02 | 0.948 | 1.09 | 0.857 | 0.657 | 0.791 | 0.789 | 0.66 | 0.619 | 0.382 | 0.516 | 0.436 | 0.566 | 0.433
2 | NCI-H2347 | 0.439 | 0.554 | 0.525 | 0.471 | 0.487 | – | 0.835 | 0.523 | 1.16 | 0.837 | 0.367 | 0.361 | 0.353 | 0.334 | 0.547 | 0.603 | 0.692 | 0.773 | 0.895 | 0.553
3 | NCI-H2405 | 0.777 | 0.767 | 0.749 | 0.601 | 0.618 | 1.08 | 1.03 | 1.09 | 1.04 | 0.969 | 0.746 | 0.744 | 0.753 | 0.649 | 0.564 | 0.901 | – | 0.725 | 0.74 | 0.55
4 | NCI-H3122 | 0.315 | 0.351 | 0.392 | 0.491 | 0.324 | 1.01 | 1.1 | 0.931 | 0.991 | 0.91 | 0.0707 | 0.131 | 0.1 | 0.0895 | 0.0997 | 0.86 | 1.05 | 0.983 | 1.14 | 0.59
5 | PC-3 [JPC-3] | 0.924 | 0.821 | 0.91 | 0.988 | 0.66 | 1.01 | 0.885 | 1.05 | 1.17 | 0.93 | 0.802 | 0.656 | 0.66 | 0.678 | 0.585 | 0.768 | – | 0.815 | 0.78 | 0.736
6 | PC-14 | 0.489 | 0.675 | 0.603 | 0.681 | 0.481 | 0.783 | 0.999 | 1 | 0.828 | 0.783 | 0.168 | 0.175 | 0.151 | 0.176 | 0.151 | 0.373 | 0.312 | 0.369 | 0.371 | 0.246
7 | RERF-LC-KJ | 0.432 | 0.462 | 0.518 | 0.426 | 0.452 | 0.794 | 0.92 | 0.917 | 0.846 | 0.561 | 1.14 | 1.12 | 1.22 | 1.24 | 0.813 | 0.636 | 0.936 | 1.15 | 0.945 | 0.584
8 | SW 900 | 0.539 | 0.636 | 0.606 | 0.602 | 0.351 | 0.833 | 0.935 | 0.951 | 0.988 | 0.566 | 0.181 | 0.182 | 0.188 | 0.188 | 0.174 | 0.517 | 0.666 | 0.656 | 0.737 | 0.367
